Patent US20170182015A1, “METHODS OF USING SNS-595 FOR TREATMENT OF CANCER SUBJECTS WITH REDUCED BRCA2 ACTIVITY” (Sunesis Pharmaceuticals, Inc., priority 2009, published 2017)
pIC50: −log10 of the molar value.

How the values were obtained:
U-2 OS cells = assay: Colony outgrowth assay (clonogenic survival), wild-type vs BRCA2 siRNA depleted; type: cell-based, human; conditions: 14 days
Protocol: Activity of SNS-595 in these assays was evaluated by clonogenic survival and compared with doxorubicin. The following protocol was used for the assay:
1. 200,000 cells were plated in each of 2 wells in a 6-well plate, and incubated over night at 37° C. and 5% CO2 atmosphere.
A: Test: 50 μL of 2 μM siBRCA2 (si Genome SMARTpool, Dharmacon)+150 μL OptiMEM (Gibco)
B: Control (no siRNA): 200 μL OptiMEM
C: 2 μL DharmaFect 1 (Dharmacon)+198 μL OptiMEM
2. Reagents were allowed to stand at room temperature for 5 minutes.
3. Reagents A+C and B+C were mixed and allowed to stand at room temperature for 20 min.
4. The media in wells was replaced with 1.6 mL of antibiotic-free media (DMEM, Gibco).
5. 400 μL of reagents A+B or B+C were added and mixed in wells. The plate was incubated at 37° C.
1. After 24 hr of siRNA treatment, cells were trypsinized and counted.
2. Cells were plated in 100 mm dishes at 500 or 1000 cells/dish in 10 mL media and incubated for 4 hr.
3. After 4 hr, test substances were added and plates were incubated for 14 days.
1. The plates were harvested and cells were fixed in methylene blue (4g/L in methanol) and colonies containing more than 50 cells were counted.

SPD8 cells [1] = assay: Recombination assay: cloning efficiency; type: cell-based, Chinese hamster; conditions: SNS-595 2 μM, doxorubicin 0.5 μM; for cloning efficiency: alone, 4 hr treatment; for effect of aphidicolin (S-phase blocker) co-treatment on cytotoxicity: co-treatment with aphidicolin 0.5 μM
From the text: (§1) The SPD8 cell line carries a spontaneously derived mutation in the hprt gene and was isolated as a 6-thioguanine (6TG) resistant clone from the V79 Chinese hamster fibroblast cell line. The mutation within the hprt gene is a tandem duplication of exon 7, intron 6, and the 3′ portion of exon 6 that results in expression of a non-functional HPRT protein (Darè et al., Somat Cell Mol Genet, 1996, 22:201-210; and Helleday et al., J Mol Biol, 1998, 279(4):687-694). This duplication can be lost through HR that revert the hprt gene to wild-type, which can be selected for in HAsT (50 μM hypoxanthine, 10 μM L-azaserine, 5 μM thymidine) (Helleday et al. 1998). The DMEM was supplemented with 6TG (5 μg/mL) in order to kill cells that undergo spontaneous reversion. The addition of 6TG at this concentration affects neither the growth rate of these mutants nor the recombination assay procedure.
(§2) Each flask (75 cm^2) was inoculated with 1.5×10^6 SPD8 cells 24 hr prior to treatment with SNS-595 (2 μM) or doxorubicin (0.5 μM) and in co-treatment with aphidicolin (0.5 μM). After 4 hr of treatment, flasks were rinsed twice with PBS and 20 mL DMEM was added. Cells were then incubated for 48 hr to recover before plating onto Petri dishes. Cloning efficiency was measured by plating 500 cells in 10 mL of medium, two Petri dishes per dose. HPRT+ revertants were selected for by plating 3×10^5 cells/dish in the presence of HAsT (50 μM hypoxanthine,10 μM L-azaserine, 5μM thymidine), three dishes per dose. After 7 and 10 days, respectively, the plates were harvested and the colonies were fixed and stained using methylene blue in methanol (4 g/L). Colonies containing more than 50 cells were counted.

[2] = test system: VC8-B2 cells (complemented for functional BRCA2); assay: Growth inhibition (proliferation) assay in BRCA2 complemented cells; type: cell-based, Chinese hamster; conditions: Cricetulus griseus; VC8-B2 cells expressing functional BRCA2; 4 hr treatment, 120 hr incubation, resazurin
Protocol: (§3) The VC8 and VC8-B2 cell lines originate from V79 Chinese hamster […] fibroblast cells. VC8 has a mutation in the brca2 gene and VC8-B2 is this cell line complemented with the human chromosome 13 (containing the brca2 gene; […] Zwet et al., Mol Cell Biol, 2002, 22(2):669-679). The influence of BRCA2 on sensitivity to SNS-595 was evaluated by a proliferation assay in Chinese hamster cells mutant (VC8) and complemented for functional BRCA2 (VC8-B2). […] The following protocol was used for the assay: 1. 4000 cells/well were plated in a 96-well plate such that half of the plate contained VC8 cells, and other half contained VC8-B2 cells. The last column was left cell-free as background control. 2. The plate was incubated at 37° C. with 5% CO2. 1. The media was removed and 50 μL of fresh media was added into each well. 2. […] 3. 100 μL from the first column was transferred into second column and mixed. 100 μL from the second column was transferred into third column and mixed and so on until end of plate. One column was left untreated. The plate was incubated at 37° C. with 5% CO2. […] After 4 hr treatment, plate was washed twice with 100 μL PBS and 250 μL media was added. The plate was incubated at 37° C. with 5% CO2. 1. After 120 hr incubation, the plate was washed with 100 μL PBS and 100 μL resaszurin (10 μg/mL in phenol red-free complete DMEM) was added. 2.

[3] = test system: SPD8 cells (hprt gene reversion by homologous recombination); assay: Recombination assay: HPRT mutation reversion frequency; type: cell-based, Chinese hamster; conditions: for reversion frequency: alone, SNS-595 2 μM, doxorubicin 0.5 μM, 4 hr treatment; for effect of S-phase block (aphidicolin co-treatment) on induced reversion rate / recombination events: co-treatment with aphidicolin 0.5 μM
From the text: as §1, §2

VC8 cells (BRCA2 mutant) = assay: Growth inhibition (proliferation) assay in BRCA2 mutant cells; type: cell-based, Chinese hamster; conditions: for pIC50: Cricetulus griseus, V-C8, VC8 cells mutant for BRCA2, 4 hr treatment, 120 hr incubation, resazurin; for increase in sensitivity in cells mutant for BRCA2 as compared to cells expressing functional BRCA2: VC8 vs VC8-B2, ratio of IC50
Protocol: as §3

SPD8 cells [4] = assay: Pulsed field gel electrophoresis (PFGE) of DNA fragments; type: cell-based, Chinese hamster
From the text: as §1
Two million (2×10^6) SPD8 cells were seeded in flasks (75 cm^2) and incubated overnight. Subsequently, cells were treated with SNS-595 (20 μM) or doxorubicin (3 μM) and in co-treatment with aphidicolin (3 μM) for 4 hr before being melted into agarose insert (1×10^6 cells/70 μL 1% InCert Agarose, BMA). Inserts were transferred to 0.5 M EDTA, 1% N-laurylsarcosyl and proteinase K (1 mg/mL) and incubated at 50° C. for 48 hr and thereafter washed four times in TE-buffer (2 hr between each wash) prior to loading onto an agarose separation gel (1% Chromosomal grade agarose, Bio-Rad). Separation was performed on a CHEF DR III system (BioRad; 120° field angle, 240 seconds switch time, 4 V/cm) for 18 hr or for 24 hours with 60 to 240 seconds switch time. The gel was stained with ethidium bromide for 5 hr and subsequently analyzed by scanning fluorescence reader (Molecular Imager FX, BioRad) using Quantative One software.

| SMILES | sensitivity of U-2 OS cells depleted for BRCA2 using siRNA relative to wild-type cells (U-2 OS cells) [×] | cloning efficiency (SPD8 cells [1]) | effect of aphidicolin (S-phase blocker) co-treatment on cytotoxicity (SPD8 cells [1]) | pIC50 [2] | reversion frequency [3] | effect of S-phase block (aphidicolin co-treatment) on induced reversion rate / recombination events [3] | pIC50 (VC8 cells (BRCA2 mutant)) | increase in sensitivity in cells mutant for BRCA2 as compared to cells expressing functional BRCA2 (VC8 cells (BRCA2 mutant)) | production of small DNA fragments (SPD8 cells [4]; FIG. 5 and 6, SNS-595 20 μM, doxorubicin 3 μM, 4 hr, PFGE 18 hr and 24 hr runs) | production of small DNA fragments (SPD8 cells [4]; FIG. 7, 18 hr PFGE run, 240 seconds switch time) | production of small DNA fragments (SPD8 cells [4]; FIG. 8, 24 hr PFGE run, 60 to 240 seconds switch time) |
| --- | --- | --- | --- | --- | --- | --- | --- | --- | --- | --- | --- |
| CN[C@H]1CN(c2ccc3c(=O)c(C(=O)O)cn(-c4nccs4)c3n2)C[C@@H]1OC [SNS-595, (+)-1,4-dihydro-7-[(3S,4S)-3-methoxy-4-(methylamino)-1-pyrrolidinyl]-4-oxo-1-(2-thiazolyl)-1,8-naphthyridine-3-carboxylic acid] | 4.6 | significantly impaired | reduction in cytotoxicity | 6.14 | increased | no effect | 6.85 | approximately 5 fold |  |  |  |
| COc1cccc2c1C(=O)c1c(O)c3c(c(O)c1C2=O)C[C@@](O)(C(=O)CO)C[C@@H]3O[C@H]1C[C@H](N)[C@H](O)[C@H](C)O1 [doxorubicin] |  | significantly impaired | reduction in cytotoxicity | 6.72 | increased | significantly reduced | 7.30 | approximately 4 fold | more small DNA fragments | more small DNA fragments | more small DNA fragments |
